Square brackets hold non-standard residues; d marks the D form. Peptide text beside a SMILES is read from it. * marks the point of attachment. AMC = Cc1cc(=O)oc2cc(N*)ccc12; Cbz = O=C(OCc1ccccc1)*; AEEA = NCCOCCOCC(=O)O
What was measured:
[1] = Solubility in aqueous assay solutions (observation); settings: aqueous assay conditions, peptide concentrations in the millimolar range; in words
LmHslV = test: Degradation of fluorogenic substrates by LmC12-U2-activated LmHslV; type: biochemical, Leishmania major; settings: LmHslV 75.2 nM, 37 °C, substrate 100 μM, activating peptide LmC12-U2 500 μM; Figure 2; in words
Description: Activity assay: The peptidase activity of recombinant LmHslV was assessed by measuring the fluorescence of AMC released after hydrolysis of the fluorogenic substrates Z-GGL-AMC or JMV4482 (Z-EVNL-AMC), 100 µM. LmHslV activation was obtained by addition of activating peptides (see type and concentration in the figure legends). Activity buffer: 25 mM Tris-HCl pH 8.0, 1 mM DTT, 0.5 mM EDTA and 5 mM MgCl2. Most of the experiments were performed in a final volume of 50 µL in black 96-well microplates (Fisher Scientific, Illkirch, France. Fluorescence was measured using a spectrofluorimeter (BIO-TEK Instrument, Inc., Winooski, VT, USA): filters 360/340 for excitation and 460/440 for emission.
Figure 2 Degradation of different fluorogenic substrates by LmHslV. LmHslV (75.2 nM) was incubated at 37 °C with different fluorogenic substrates (100 μM) in the presence of the activating peptide LmC12-U2 (500 μM). The fluorescence of the free AMC group, proportional to the activity of the sample, was measured at 2 min. intervals. With each substrate, no activity was measured in the absence of activating peptide: for the sake of clarity, only the negative control values obtained with the substrate ZGGL-AMC are shown.

[2] = target: HslV from E. coli (EcHslV) (Escherichia coli, UniProt P0A7B8); settings: compared with Z-GGL-AMC; in words
Sequence of HslV from E. coli (EcHslV) (P0A7B8 2-176): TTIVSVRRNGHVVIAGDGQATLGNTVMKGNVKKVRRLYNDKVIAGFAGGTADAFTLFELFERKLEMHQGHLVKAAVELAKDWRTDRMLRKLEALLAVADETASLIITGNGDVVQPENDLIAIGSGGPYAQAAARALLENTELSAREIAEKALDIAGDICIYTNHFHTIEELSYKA
Description: A further improvement to our assays was the development of a novel fluorogenic peptide substrate, which was more convenient to use than Z-GGL-AMC. Indeed, although the substrate Z-GGL-AMC mostly used in the literature for the studies of HslV has proven useful, its use is limited by its poor solubility in aqueous solutions [6, 36]. In view of finding alternative substrates for LmHslV, we tested a variety of possible fluorogenic substrates (commercial or home-made) including Suc-LLVY-AMC, a classical substrate used for the eukaryotic proteasome, in the presence of the reference activator peptide LmC12-U2.

CC[C@H](C)[C@H](NC(=O)[C@H](Cc1ccccc1)NC(=O)[C@H](CCCCN)NC(=O)[C@H](CCCCN)NC(=O)[C@@H](NC(=O)[C@H](CC(=O)O)NC(=O)[C@@H](NC(=O)[C@H](CCCCN)NC(=O)[C@H](CCCCN)NC(=O)[C@@H](NC(=O)[C@H](CCSC)NC(=O)COCCOCCNC(=O)[C@H](N)CCCNC(=N)N)C(C)C)C(C)C)[C@@H](C)CC)C(=O)N[C@@H](CC(C)C)C(=O)O [Compound 8] (H-[dR][AEEA]MVKKVDIKKFIL-OH)
Solubility of activating peptide [1]: significantly more soluble than C8-U1

H-VNLAKYLL-OH [Compound 3]
Solubility of activating peptide [1]: not soluble enough for reliable results

Cbz-EVNL-{AMC} (SMILES Cc1cc(=O)oc2cc(NC(=O)[C@H](CC(C)C)NC(=O)[C@H](CC(N)=O)NC(=O)[C@@H](NC(=O)[C@H](CCC(=O)O)NC(=O)OCc3ccccc3)C(C)C)ccc12) [Z-EVNL-AMC]
Degradation of fluorogenic substrate by activated LmHslV (LmHslV): more efficiently degraded by LmHslV than Z-GGL-AMC and Suc-LLVY-AMC
Degradation of fluorogenic substrate by EcHslV [2]: more efficiently degraded by HslV from E. coli (EcHslV) than Z-GGL-AMC
